Values joined by “and” are separate entries in the source; they are usually repeats but may differ in a detail not shown here. Equal entries are not always repeated.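 Tested at 5 concentrations; 48 h exposure; 96-well plates; endpoints linearly interpolated, else capped at highest concentration. The concentration for 50% growth inhibition is given as GI50. TGI denotes the concentration required for complete inhibition of growth.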
Tests used:
Test in all cases: inhibition of tumour cell growth, NCI panel, 48 h
HS 578T breast = test system: HS 578T breast
NCI/ADR-RES ovarian = test system: NCI/ADR-RES ovarian
BT-549 breast = test system: BT-549 breast
T-47D breast = test system: T-47D breast
PC-3 prostate = test system: PC-3 prostate
DLD-1 colon = test system: DLD-1 colon
KM20L2 colon = test system: KM20L2 colon
SNB-78 CNS = test system: SNB-78 CNS
DMS 114 small cell lung = test system: DMS 114 small cell lung

Row | SMILES | TGI (HS 578T breast) | TGI (NCI/ADR-RES ovarian) | TGI (BT-549 breast) | TGI (T-47D breast) | TGI (PC-3 prostate) | GI50 (HS 578T breast) | GI50 (NCI/ADR-RES ovarian) | GI50 (BT-549 breast) | GI50 (T-47D breast) | GI50 (PC-3 prostate) | TGI (DLD-1 colon) | TGI (KM20L2 colon) | TGI (SNB-78 CNS) | TGI (DMS 114 small cell lung)
1 | O=C1CCC(c2ccccc2)(c2ccccc2)CC1 | > 100 µM | > 100 µM | > 100 µM | > 100 µM | > 100 µM |  |  |  |  |  |  |  |  | 
2 | CCNC1=CC(=O)c2ncccc2C1=O | 6.27 µM | 28.2 µM | 3.15 µM | 23.1 µM | 22.8 µM | 1.69 µM | 3.75 µM | 1.54 µM | 4.45 µM | 2.71 µM |  |  |  | 
3 | CCOc1ccc(N2C(N)=NC(N)=NC2(C)C)cc1 | > 100 µM | > 100 µM | > 100 µM | > 100 µM | > 100 µM | > 100 µM | > 100 µM | 84.3 µM | > 100 µM | 45.7 µM |  |  |  | 
4 | Cn1cc(/C=C2\C(=O)Nc3cccnc32)c2ccccc21 | > 25 µM | > 25 µM | > 25 µM | > 25 µM | > 25 µM | 8.58 µM | 20.4 µM | > 25 µM | > 17.1 µM | 22.9 µM |  |  |  | 
5 | C1CCN2CC34CC(CC5CCCN(C6CCCC3N6)C54)C2C1 (configuration not stated) | > 100 µM | > 100 µM | > 100 µM | > 100 µM | > 100 µM |  |  |  |  |  |  |  |  | 
6 | NC(=O)c1ccc(NC(=O)c2oc3ccccc3c2-c2cnn(-c3ccccc3)c2)cc1 | > 100 µM |  | > 100 µM |  |  | 4.56 µM |  | 3.51 µM |  |  |  |  |  | 
7 | C[Si](C)(C)[C@@]1([Se]c2ccccc2)CC[C@@H]1C(=O)c1ccccc1 |  |  |  |  |  |  |  |  |  |  | > 100 µM | > 100 µM | > 100 µM | > 100 µM
8 | CC(C)(C)c1ccc(C(O)(c2ccc(C(C)(C)C)cc2)c2ccc(C(C)(C)C)cc2)cc1 | > 100 µM | > 100 µM | > 100 µM | > 100 µM | > 100 µM |  |  |  |  |  |  |  |  | 
9 | C[C@H]1CC(=O)[C@@]2(O)C#C/C=C\C#C[C@@H]3Nc4c(cc(O)c5c4C(=O)c4ccccc4C5=O)[C@]24O[C@]314 | 8.35 µM and 1.35 µM | 0.44 µM |  | 0.612 µM |  | 0.292 µM |  |  |  |  |  |  |  | 
10 | Fc1cc(Nc2ccc3c(OCCCN4CCOCC4)cccc3n2)ccc1Cl | 6 µM | 11.2 µM | 18.7 µM | 7.16 µM | 5.83 µM | 2.19 µM | 3.09 µM | 5.16 µM | 2.27 µM | 2.08 µM |  |  |  | 
11 | COc1cc(C(=O)c2c(-c3ccccc3)oc3ccccc23)cc(OC)c1O | 8.47 µM | 20 µM | 7.82 µM | 31.8 µM | 15.7 µM | 0.898 µM | 0.876 µM | 1.39 µM | 2.14 µM | 3.47 µM |  |  |  | 
12 | Cc1[nH]nc(C(=O)N/N=C/c2cccs2)c1N=NN(C)C | > 100 µM | > 100 µM | 27.3 µM | 41.3 µM | > 100 µM |  |  |  |  |  |  |  |  | 
13 | Cc1cc(I)cc(CN(C)CCCCN2CCCC2)c1O | 32.8 µM | > 100 µM | 33.5 µM | 40.4 µM | 83.6 µM | 11.5 µM | 35.2 µM | 13.6 µM | 15.7 µM | 24.8 µM |  |  |  | 
14 | O=C(/C=C/c1cccs1)Nc1ncc(Cc2ccccc2F)s1 | > 100 µM | > 100 µM | > 100 µM | > 100 µM | > 100 µM | 0.27 µM | 0.246 µM |  | 0.404 µM | 0.261 µM |  |  |  | 
15 | CCn1c(-c2cc3ccccc3cc2OC(=O)c2ccccc2)n[nH]c1=S | 44.8 µM | > 50 µM | > 50 µM | > 50 µM | > 50 µM | 11.6 µM | 23.2 µM | 34 µM | 38.3 µM | 19.6 µM |  |  |  | 
16 | O=[N+]([O-])C(=C(c1ccccc1)c1ccccc1)[N+](=O)[O-] |  |  |  |  |  |  |  |  |  |  | 19.8 µM | 32.1 µM |  | 43.2 µM
17 | CCc1ccc(/C=C2/SC(=S)NC2=O)cc1 | 70.6 µM | 89.4 µM | 58.2 µM | 89.2 µM | > 100 µM | 16.3 µM | 25.3 µM | 20.9 µM | 23.5 µM | 23.3 µM |  |  |  | 
18 | C=C1C(=O)C23C(CC(OC(C)=O)C1[C@@H]2OC(C)=O)C1(C)C(OC(C)=O)CCC(C)(C)C1C[C@@H]3OC(C)=O (some centres not stated) |  |  |  |  |  |  |  |  |  |  |  |  | 3.14 µM | 2.4 µM
19 | COc1cc(Nc2ncc(-c3ccccc3)o2)cc(OC)c1OC | 4.55 µM | > 25 µM | > 25 µM | > 25 µM | > 25 µM | 0.278 µM | 1.38 µM | 3.24 µM | 0.231 µM | 7.3 µM |  |  |  | 
20 | NC(=NC1C2CC3CC(C2)CC1C3)Nc1ccc(I)cc1 (configuration not stated) | 25.2 µM | 17.1 µM | 12.8 µM |  | 12.2 µM | 4.65 µM | 4.59 µM | 3.33 µM |  | 3.14 µM |  |  |  | 
21 | CC(Cl)CC(=O)Nc1ccc2c(c1)oc(=O)c1cc(NC(=O)CC(C)Cl)ccc12 (configuration not stated) | 22.6 µM | 51 µM | 53.3 µM | > 100 µM | 27.7 µM | 2.36 µM | 12.4 µM | 22.1 µM | 16.2 µM | 12.4 µM |  |  |  | 
22 | O=C(Nc1ccc(-c2nc3ccc(NC(=O)c4ccc(Cl)cc4)cc3[nH]2)cc1)c1ccc(Cl)cc1 | 7.9 µM | 64.4 µM | 20.7 µM | 5.01 µM | 5.93 µM | 0.0559 µM | 17 µM | 6.56 µM | 2.13 µM | 2.11 µM |  |  |  | 
23 | CCn1cc(C2NC(=O)c3cc(F)ccc3N2)c2cccc(Cl)c21 (configuration not stated) | > 23.1 µM | 0.75 µM | > 100 µM | > 100 µM | > 100 µM | 0.197 µM | 0.081 µM | 0.327 µM | 0.635 µM | 0.296 µM |  |  |  | 
24 | COCCn1cc(-c2csc(-c3c[nH]c4ccc(F)cc34)n2)c2cccnc21 | > 100 µM | 29.2 µM | > 100 µM |  | > 100 µM | 8.82 µM | 2.17 µM | 4.26 µM |  | 5.07 µM |  |  |  | 
25 | COCCOC(=O)CCn1cc(F)c(=O)[nH]c1=O | > 150 mg/L | > 150 mg/L | > 150 mg/L | > 150 mg/L | > 150 mg/L | > 150 mg/L | 46.4 mg/L | 16.2 mg/L | 73.4 mg/L | 108 mg/L |  |  |  | 

From PubChem BioAssay (NCI)
